In patent US20090062243A1, “Lupane-Type Triterpenoids Modified at 30-Position and Analogues Thereof” (ADVANCED LIFE SCIENCES, INC., priority 2007, published 2009):

What was measured:
Format in all cases: cell-based
MCF-7 (breast carcinoma) = assay: MTS cell viability assay, MCF-7
Experimental: (§1) Cells were plated, the evening before treatment, for each treatment on 96-well plates (1×10^4 cells/well) in 100 μL volume per well. Analog solutions were prepared by diluting each test compound in DSMO (10 mM) with the appropriate cell growth media for each individual cell line, or in “Universal Media” if several cell lines were to be assayed in parallel, immediately prior to cell treatment. Universal Media consisted of 5 mL sodium pyruvate (100× liquid stock, MediaTech), 5 mL glucose (100×, 45% liquid stock, MediaTech), 5 mL Penicillin/Streptomycin (100× liquid stock, MediaTech), 10 mL sodium bicarbonate (50× liquid stock, MediaTech), 25 mL Fetal Calf Serum, 1.25 mL insulin (4 mg/mL, Gibco) and […] RPMI media with 2 mM L-glutamine for a total volume of 500 mL.
(§2) Cells were treated by aspirating plating media from each well and adding 80 μL of betulinic acid (control) or each analog solution in serial dilutions to the adherent cells. All treatments were performed in triplicate. Growth media (80 μL) was added to 3 blank wells (no cells) to measure background from the growth media. Growth media alone (no DMSO or test compound) was added to 3 wells containing cells to measure the baseline MTS activity. Vehicle (DMSO) control in serial dilutions, added to cells, was also included to monitor basal toxicity from DMSO. Cells were incubated at 37° C. for 72 h, or 120 h for the OVCAR cell lines. MTS reagent (per 96-well plate) were prepared by combining 2 mL of MTS working solution (Cell Titer AQueous Non-Radioactive Cell Proliferation Assay, Promega, cat#G1112), 100 μL of 0.92 mg/mL phenazine methosulfate/Dulbecco's PBS and 2.1 mL growth media. MTS reagent (40 μL) were added to each well and incubated at 37° C. for 1.5 to 4 h. Plates were gently shaken by hand until solution in each well appeared homogenous. Absorbances at 490 nm were measured on a Wallac Victor II plate reader at multiple time points following the addition of MTS reagent for each plate. Triplicate absorbance (490 nm) measurements were averaged following background (no cell) subtraction for each drug concentration. Percent Cell Viability was calculated for each drug concentration using the following equation:
(§3) {[Absorbance(analog treated)]/[Absorbance(DMSO treated)]}×100%
(§4) Cytotoxicity dose response for the triterpenoid derivatives synthesized in SK-MEL-2 (melanoma), A-375 (melanoma), Daoy (glioblastoma), LN-229 (glioblastoma), OVCAR-3 (ovarian carcinoma), HT-29 (colon carcinoma), MCF-7 (breast carcinoma) cell lines using the standard MTS assay is summarized in Table 1. In Table 1, compounds 22a-d and compounds 23a-c refer to structures 22 and 23 in Scheme 5, respectively. Compounds 24aa-an and 24ba-bq refer to structure 24 in Scheme 6. Compounds 26a-e refer to structure 26 in Scheme 6. Compounds 36a-c refer to structure 36 in Scheme 10.

LN-229 (glioblastoma) = assay: MTS cell viability assay, LN-229
Experimental: as §1, §2, §3, §4

Daoy = assay: MTS cell viability assay, Daoy; details: cells incubated 72 h
Experimental: as §1, §2, §3, §4

[1] = system: OVCAR-3 (ovarian carcinoma); assay: MTS cell viability assay, OVCAR-3
Experimental: as §1, §2, §3, §4

SK-MEL-2 (melanoma) = assay: MTS cell viability assay, SK-MEL-2
Experimental: as §1, §2, §3, §4

HT-29 (colon carcinoma) = assay: MTS cell viability assay, HT-29
Experimental: as §1, §2, §3, §4

A-375 (melanoma) = assay: MTS cell viability assay, A-375
Experimental: as §1, §2, §3, §4

[2] = Homo sapiens, MCF7, cells incubated 72 h
[3] = Homo sapiens, LN-229, cells incubated 72 h
[4] = Homo sapiens, OVCAR-3, 120 h for the OVCAR cell lines
[5] = Homo sapiens, SK-MEL-2, cells incubated 72 h
[6] = Homo sapiens, HT-29, cells incubated 72 h
[7] = Homo sapiens, A-375, cells incubated 72 h

| Compound | IC50 (MCF-7 (breast carcinoma); [2]) | IC50 (LN-229 (glioblastoma); [3]) | IC50 (Daoy; Homo sapiens, Daoy) | IC50 [1, 4] | IC50 (SK-MEL-2 (melanoma); [5]) | IC50 (HT-29 (colon carcinoma); [6]) | IC50 (A-375 (melanoma); [7]) | IC50 (MCF-7 (breast carcinoma); cells incubated 72 h) | IC50 (LN-229 (glioblastoma); cells incubated 72 h) | IC50 (Daoy) | IC50 ([1]; 120 h for the OVCAR cell lines) | IC50 (SK-MEL-2 (melanoma); cells incubated 72 h) | IC50 (HT-29 (colon carcinoma); cells incubated 72 h) | IC50 (A-375 (melanoma); cells incubated 72 h) |
| --- | --- | --- | --- | --- | --- | --- | --- | --- | --- | --- | --- | --- | --- | --- |
| C=C(CO)[C@@H]1CC[C@]2(CO)CC[C@]3(C)[C@H](CC[C@@H]4[C@@]5(C)CCC(NCCO)C(C)(C)[C@@H]5CC[C@]43C)[C@@H]12 (some centres unmarked) [Compound 24ad] | 41 µM | 37 µM | 29 µM | 39 µM | 34 µM | 65 µM | 16 µM | – | – | – | – | – | – | – |
| C=C(CO)[C@@H]1CC[C@]2(COC3CCCCO3)CC[C@]3(C)[C@H](CC[C@@H]4[C@@]5(C)CCC(NCCOC)C(C)(C)[C@@H]5CC[C@]43C)[C@@H]12 (some centres unmarked) [Compound 24ae] | 16 µM | 17 µM | 28 µM | 17 µM | 34 µM | 19 µM | 6 µM | – | – | – | – | – | – | – |
| C=C(CO)[C@@H]1CC[C@]2(CO)CC[C@]3(C)[C@H](CC[C@@H]4[C@@]5(C)CCC(NCCOC)C(C)(C)[C@@H]5CC[C@]43C)[C@@H]12 (some centres unmarked) [Compound 24af] | – | – | – | – | – | – | – | 40 µM | 38 µM | 34 µM | 40 µM | 38 µM | 47 µM | 18 µM |
| C=C(CO)[C@@H]1CC[C@]2(CO)CC[C@]3(C)[C@H](CC[C@@H]4[C@@]5(C)CCC(NCCc6ccc(O)cc6)C(C)(C)[C@@H]5CC[C@]43C)[C@@H]12 (some centres unmarked) [Compound 24ag] | – | – | – | – | – | – | – | 28 µM | 17 µM | 16 µM | 5 µM | 12 µM | 26 µM | 17 µM |
| C=C(CO)[C@@H]1CC[C@]2(COC3CCCCO3)CC[C@]3(C)[C@H](CC[C@@H]4[C@@]5(C)CCC(NCCc6ccc(O)c(O)c6)C(C)(C)[C@@H]5CC[C@]43C)[C@@H]12 (some centres unmarked) [Compound 24ai] | 16 µM | 16 µM | 6 µM | 4 µM | 5 µM | 26 µM | 14 µM | – | – | – | – | – | – | – |
| C=C(CO)[C@@H]1CC[C@]2(CO)CC[C@]3(C)[C@H](CC[C@@H]4[C@@]5(C)CCC(NCCc6ccc(O)c(O)c6)C(C)(C)[C@@H]5CC[C@]43C)[C@@H]12 (some centres unmarked) [Compound 24aj] | 31 µM | 17 µM | 34 µM | 18 µM | 24 µM | 37 µM | 6 µM | – | – | – | – | – | – | – |
| C=C(CO)[C@@H]1CC[C@]2(CO)CC[C@]3(C)[C@H](CC[C@@H]4[C@@]5(C)CCC(NCCNC(=O)OC(C)(C)C)C(C)(C)[C@@H]5CC[C@]43C)[C@@H]12 (some centres unmarked) [Compound 24am] | – | – | – | – | – | – | – | 35 µM | 17 µM | 16 µM | 2.5 µM | 16 µM | > 75 µM | 17 µM |
| C=C(CNCCO)[C@@H]1CC[C@]2(CO)CC[C@]3(C)[C@H](CC[C@@H]4[C@@]5(C)CCC(NC6CCC(O)CC6)C(C)(C)[C@@H]5CC[C@]43C)[C@@H]12 (some centres unmarked) [Compound 24bj] | – | – | – | – | – | – | – | 4 µM | 16 µM | 5 µM | – | 5 µM | 2 µM | 7 µM |
| C=C(CO)[C@@H]1CC[C@]2(COC3CCCCO3)CC[C@]3(C)[C@H](CC[C@@H]4[C@@]5(C)C=CC(=O)C(C)(C)[C@@H]5CC[C@]43C)[C@@H]12 (some centres unmarked) [Compound 28] | 5 µM | – | 16 µM | 30 µM | 19 µM | 19 µM | 18 µM | – | – | – | – | – | – | – |
| C=C(C)[C@@H]1CC[C@]2(COC3CCCCO3)CC[C@]3(C)[C@H](CC[C@@H]4[C@@]5(C)C=C(C=O)C(=O)C(C)(C)[C@@H]5CC[C@]43C)[C@@H]12 (some centres unmarked) [Compound 32] | 6 µM | 2 µM | < 2 µM | 6 µM | < 2 µM | 6 µM | 6 µM | – | – | – | – | – | – | – |
| CC(CNCCO)[C@@H]1CC[C@]2(COC3CCCCO3)CC[C@]3(C)[C@H](CC[C@@H]4[C@@]5(C)CCC(O)C(C)(C)[C@@H]5CC[C@]43C)[C@@H]12 (some centres unmarked) [Compound 36a] | 7 µM | 28 µM | 4 µM | – | 4 µM | 5 µM | 5 µM | – | – | – | – | – | – | – |
